Patent US7786090B2, “Methods and compositions for treating and preventing neurologic disorders” (President and Fellows of Harvard College, priority 2006, dated 2010)
Square brackets hold non-standard residues; d marks the D form. Ends that are not written are not given here. Peptide text beside a SMILES is read from it. * marks the point of attachment. pS = N[C@@H](COP(=O)(O)O)C(=O)O; Cbz = O=C(OCc1ccccc1)*

Key:
[1] = target: T1, interaction of Pin1 with JIP3 (Homo sapiens, UniProt Q13526); test: GST-Pin1 pulldown with increasing Pintide, Pin1-JIP3 interaction; assay type: binding; design: dose or concentration left out as unconfirmed; conditions: lysates of 293T cells transfected with FLAG-JIP3, Pintide 0, 2.5, 5, 10, 25
T1 construct: made in house; FLAG-JIP3: lysate of transfected 293T cells
Protocol: (§1) FIG. 2G is a series of immunoblot photographs. Lysates of 293T cells transfected with FLAG-JIP3 or FLAG-BIMEL together with FLAG-MEKK1Δ were subjected to a GST-Pin1 pulldown assay in the presence of increasing amount of Pintide peptide ([…]), followed by immunoblotting for FLAG and GST. Representative immunoblots of three independent experiments are shown.
(§2) GST-pulldown assays were performed as described by Ryo et al., Mol. Cell 12: 1413-1426, 2003. Immunoprecipitations and subcellular fractionations were performed as described by Konishi et al., Science 303: 1026-1030, 2004. The postnuclear supernatant was further centrifuged at 10,000 g for 30 min to pellet the mitochondrially-enriched heavy membrane (HM) fraction. Antibodies to BIM (Stressgen); phospho65 BIM antibody (Biosource); HA, HSP60, JIP3, GST (Santa Cruz Biotechnology); FLAG (Sigma); P-c-Jun, MKK7, Pin1 (Cell Signaling); SP1, JNK (Upstate); GFP (Molecular Probes) are available commercially.
(§3) Thus, similar to BIMEL, JIP3 interacts with Pin1 in a phosphorylation-dependent manner.

[2] = target: T2, interaction of Pin1 with BIMEL (Homo sapiens, UniProt Q13526); test: GST-Pin1 pulldown with increasing Pintide, Pin1-BIMEL interaction; assay type: binding; conditions: lysates of 293T cells transfected with FLAG-BIMEL and FLAG-MEKK1Δ, Pintide 0, 2.5, 5, 10, 25, 50 mM
T2 construct: made in house; FLAG-BIMEL: lysate of 293T cells co-transfected with FLAG-MEKK1Δ
Protocol: as §1, §2, §3

JNK signaling = JNK signaling in cerebellar granule neurons (phosphorylation of c-Jun and BIMEL); assay type: cell-based, rat; conditions: granule neurons treated for 5 h with 5 μM MG132
Protocol: FIG. 1C is a series of immunoblot photographs. Lysates of cerebellar granule neurons untreated or treated for 5 h with 5 μM MG132 were subjected to a pulldown with GST-Pin1 WW, followed by immunoblotting for BIM. Lower panels show the expression of BIMEL and phosphorylated c-Jun.
The phosphorylation of BIMEL at Ser65 triggers apoptosis specifically in neurons but not in non-neural cells. A critical regulatory post-phosphorylation event is the prolyl isomerization of proteins at sites of proline-dependent phosphorylation. A major function of Pin1 is to drive cells through mitosis in proliferating cells. Pin1 is also highly expressed in the nervous system. To assess whether Pin1 binds to Ser65-phosphorylated BIMEL in vitro, we used a GST pulldown assay. We expressed BIMEL in 293T cells alone or together with a constitutively active form of the kinase MEKK1 (MEKK1Δ), an upstream activator of JNK. Expression of MEKK1Δ results in the robust phosphorylation of BIMEL at Ser65, which is reflected by a mobility shift of BIMEL (FIG. 1A). Recombinant GST-Pin1, but not GST, specifically co-precipitated phosphorylated but not unphosphorylated BIMEL from cell lysates (FIG. 1A). […] In other experiments, we tested if a recombinant GST fusion protein containing the WW domain of Pin1 associates with BIMEL. The WW domain of Pin1 interacts specifically with phosphoSer/Thr-Pro motifs. […]

[3] = system: interaction of Pin1 and JIP3; test: Co-immunoprecipitation of endogenous Pin1 and JIP3 in granule neurons; assay type: cell-based, rat; conditions: exposure of granule neurons to JNK activating stimuli
Protocol: Lysates from granule neurons that were kept in conditioned full medium (CM) or starved for 2 h (Starv) were immunoprecipitated using a JIP3 antibody, followed by immunoblotting for Pin1. Left panels show the expression of JIP3 and Pin1.
To determine whether the binding of Pin1 to JIP3 is regulated by an apoptotic stimulus, we measured the interaction of endogenous Pin1 and JIP3 in granule neurons that were left in full medium (conditioned medium, CM) or that were starved for two hours.

Pin1 = Pin1 (Homo sapiens, UniProt Q13526); conditions: Daum et al. 2006; cited from earlier work
Sequence of Pin1 (Q13526 whole entry, species assumed): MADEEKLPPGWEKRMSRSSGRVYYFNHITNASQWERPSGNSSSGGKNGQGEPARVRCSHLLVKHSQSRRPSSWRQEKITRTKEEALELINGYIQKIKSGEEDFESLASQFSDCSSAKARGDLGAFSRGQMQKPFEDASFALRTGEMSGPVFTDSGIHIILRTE

T1 sequence (Q13526 whole entry): as the sequence (Q13526 whole entry, species assumed) above
T2 sequence (Q13526 whole entry): as the sequence (Q13526 whole entry, species assumed) above

Molecule	interaction of Pin1 and JIP3 [3]	inhibition of Pin1 (Pin1)	also measured
WFYpSPRLKK (WFY[pS]PRLKK) [Pintide]			disruption of the interaction of Pin1 with JIP3 [1]: disrupted the interaction of Pin1 with JIP3 and BIMEL in a dose-dependent manner; disruption of the interaction of Pin1 with BIMEL [2]: disrupted the interaction of Pin1 with JIP3 and BIMEL in a dose-dependent manner
CC(C)C[C@@H](C=O)NC(=O)[C@H](CC(C)C)NC(=O)[C@H](CC(C)C)NC(=O)OCc1ccccc1 [MG132] (Cbz-Leu-Leu-Leu-aldehyde)	led to a decrease		JNK signaling (JNK signaling): activated JNK signaling
COc1ccc(F)cc1C(=O)C1(C)CCc2ccccc21 (racemic) [rac-9]		inhibit Pin1	
COc1ccc(F)cc1C(=O)[C@]1(C)CCc2ccccc21 [(R)-9]		inhibit Pin1	
OO [hydrogen peroxide]	led to a decrease		
